Experimental findings from patent US20240368122A1, “JAK2 INHIBITORS AND METHODS OF USE THEREOF” (RELAY THERAPEUTICS, INC., priority 2021, published 2024) are described below.

Broadly, the Kd is the free concentration of one partner at which half of the binding sites on the other are occupied at equilibrium, for simple one-to-one binding. By IC50 is commonly meant the midpoint of a concentration-inhibition curve.

Test [1] addresses T1, JAK2 JH2 WT (V536-D812) [W659A, W777A, F794H solubilizing mutations] (Homo sapiens, UniProt O60674, F794H/W659A/W777A).
T1 construct: **JAK2 JH2 WT (V536-D812) [W659A, W777A, F794H solubilizing mutations]; C-thrombin-avi-His6; thrombin cleavage site (C); His6 (C); purchased Biortus
The test can be described thus: Surface Plasmon Resonance (SPR) binding assay, JAK2 JH2 domain. Summed up:
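Kinetics came from 1:1 fits of single-cycle runs at 20 °C: four 3-fold dilutions from 5 uM for JH1 or 500 nM for JH2, 60 s association, and 300 s or 1200 s dissociation respectively. Protein was freshly captured per compound in the presence of 10 uM stabilizer compound, with running buffer of pH 7.5 HEPES/NaCl/glycerol/DTT plus 2% DMSO.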

Test [2] relates to TF1 JAK2 V617F STAT3 reporter. Nature of the test: Cellular TF1 STAT3 assay (luciferase reporter), JAK2 V617F. The class given is cell-based. As to conditions: read-out: Cell PD-TF1 JAK2 V617F STAT3 (IC50). A digest of the protocol: (§1)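 TF1 erythroleukemia cells expressing V617F JAK2 with a STAT3 or STAT5 luciferase reporter were seeded at 10,000 cells/well onto compound (10-point, 1:3 dilutions; 10 mM top stock at 1000×) and incubated 18-20 h at 37 °C, 5% CO2. Luminescence was read after ONE-glo addition, 10 min at room temperature.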

The test system of test [3] is TF1 JAK2 V617F STAT5 reporter. The test can be described thus: Cellular TF1 STAT5 assay (luciferase reporter), JAK2 V617F. The class given is cell-based. As to conditions: read-out: Cell PD TF1 V617F STAT5 (IC50). A digest of the protocol:
as §1
(In general: A reporter such as luciferase makes a cellular process visible.)

Setting [4] is: Homo sapiens, TF-1, TF1 cells, JAK2 V617F.

Where two headings read alike, the source gives them in different places.

T1 sequence (O60674 536-812 W659A/W777A/F794H): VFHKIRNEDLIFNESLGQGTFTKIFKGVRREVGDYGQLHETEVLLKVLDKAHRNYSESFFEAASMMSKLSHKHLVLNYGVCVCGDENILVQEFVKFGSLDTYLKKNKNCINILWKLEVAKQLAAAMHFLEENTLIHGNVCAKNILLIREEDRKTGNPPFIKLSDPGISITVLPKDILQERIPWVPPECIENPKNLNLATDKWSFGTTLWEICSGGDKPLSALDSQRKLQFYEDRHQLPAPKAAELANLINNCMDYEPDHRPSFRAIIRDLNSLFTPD

With `CNC(=O)c1nnc(NC(=O)C2CC2)cc1Nc1cccc(-c2cnn(C3CN(Cc4cccc(C5COC5)n4)C3)c2)c1OC` [Compound 343], the Kd in test [1] fell in the range of 0.01 to 10 nM. In addition, the IC50 in test [2] (setting [4]) and in test [3] (setting [4]) was 50 to 500 nM each time.

As for `CNC(=O)c1nnc(NC(=O)C2CC2)cc1Nc1cccc(-c2cnn(C3CN(Cc4cccc(C(C)=O)n4)C3)c2)c1OC` [Compound 307], the Kd in test [1] fell in the range of 0.01 to 10 nM. In addition, the IC50 in test [2] (setting [4]) and in test [3] (setting [4]) was 50 to 500 nM in each case.

In test [1], `CNC(=O)c1nnc(NC(=O)C2CC2)cc1Nc1cccc(-c2cnn(C3CN(Cc4cccc(C(C)(C)C#N)n4)C3)c2)c1OC` [Compound 277] returned a Kd of 0.01 to 10 nM. For the same molecule, the IC50 in test [2] (setting [4]) and in test [3] (setting [4]) was 50 to 500 nM throughout.

The molecule `CNC(=O)c1nnc(NC(=O)C2CC2)cc1Nc1cccc(-c2ccc(C3CN(Cc4cc(C#N)ccn4)C3)nc2)c1OC` [Compound 279] gave a Kd in test [1] of 10 to 50 nM. Also, the IC50 in test [2] (setting [4]) and in test [3] (setting [4]) was 5000 to 100000 nM throughout.

`CNC(=O)c1nnc(NC(=O)C2CC2)cc1Nc1ccc(C#N)c(-c2ccc(C(=O)N(C)Cc3cc(C#N)ccn3)cc2)c1OC` [Compound 272] had a Kd in test [1] of 0.01 to 10 nM. For the same molecule, the IC50 in test [2] (setting [4]) and in test [3] (setting [4]) was 500 to 5000 nM throughout.

In turn, `CNC(=O)c1nnc(NC(=O)C2CC2)cc1Nc1ccc(C)c(-c2ccc(C(=O)N(C)Cc3cc(S(C)(=O)=O)ccn3)nc2)c1OC` [Compound 347] yielded a Kd in test [1] of 0.01 to 10 nM. The IC50 in test [2] (setting [4]) and in test [3] (setting [4]) was 50 to 500 nM each time.

`[2H]C([2H])(c1cccc(C#N)n1)N1CC(n2cc(-c3cccc(Nc4cc(NC(=O)C5CC5)nnc4C(=O)NC)c3OC)cn2)C1` [Compound 409] registered a Kd in test [1] (SPR, JAK2 JH2 domain) of 0.01 to 10 nM. Further, the IC50 in test [2] (setting [4]) and in test [3] (setting [4]) was 50 to 500 nM throughout.

Consider `CNC(=O)c1nnc(NC(=O)C2CC2)cc1Nc1ccc(C)c(-c2ccc(C(=O)N(C)Cc3cn(C)nc3C)cn2)c1OC` [Compound 278], for which the Kd in test [1] lay in the range of 0.01 to 10 nM. Also, the IC50 in test [2] (setting [4]) and in test [3] (setting [4]) was 500 to 5000 nM throughout.

Regarding `CNC(=O)c1nnc(NC(=O)C2CC2)cc1Nc1cccc(-c2cn(C3CN(C(C)C)C3)nc2CO)c1OC` [Compound 335], in test [1], the Kd was 50 to 500 nM. The half-maximal inhibitory concentration (IC50) in test [2] (setting [4]) and in test [3] (setting [4]) was 5000 to 100000 nM in each case.

Turning to `CNC(=O)c1nnc(NC(=O)C2CC2)cc1Nc1cccc(-c2ccc(C(=O)N(C)[C@H](C)c3nc(C)no3)nc2)c1OC` (single isomer, unassigned) [Compound 65], the Kd in test [1] (SPR, JAK2 JH2 domain) was in the range of 0.01 to 10 nM. The half-inhibitory concentration (IC50) in test [2] (TF1 JAK2 V617F) and in test [3] (TF1 JAK2 V617F) was 500 to 5000 nM throughout.

In the case of `CNC(=O)c1nnc(NC(=O)C2CC2)cc1Nc1cccc(-c2cnn([C@H]3CCN(Cc4ccccn4)C3)c2)c1OC` (single isomer, unassigned) [Compound 333], the Kd in test [1] lay within 0.01 to 10 nM. Further, the IC50 in test [2] (setting [4]) and in test [3] (setting [4]) was 500 to 5000 nM each time.

Regarding `[2H]C([2H])([2H])NC(=O)c1nnc(NC(=O)C2CC2)cc1Nc1cccc(-c2ccc(C(=O)N(C)Cc3ccn(C)n3)nc2)c1OC` [Compound 79], the Kd in test [1] (SPR, JAK2 JH2 domain) was in the range of 0.01 to 10 nM. The IC50 was in the range of 50 to 500 nM in test [2] (TF1 JAK2 V617F) and 500 to 5000 nM in test [3] (TF1 JAK2 V617F).

On to `CNC(=O)c1nnc(NC(=O)C2CC2)cc1Nc1cccc(-c2cnc(C(=O)N(C)Cc3cccn(C)c3=O)cc2C)c1OC` [Compound 24], for which the dissociation constant (Kd) in test [1] (SPR, JAK2 JH2 domain) is 0.01 to 10 nM. Moreover, the IC50 in test [2] (TF1 JAK2 V617F) and in test [3] (TF1 JAK2 V617F) was 500 to 5000 nM each time.

`CNC(=O)c1nnc(NC(=O)C2CC2)cc1Nc1cccc(-c2ccc(C(=O)N(C)Cc3cncs3)nc2)c1OC` [Compound 60] showed a Kd in test [1] (SPR, JAK2 JH2 domain) of 10 to 50 nM. The IC50 in test [2] (TF1 JAK2 V617F) was 500 to 5000 nM; in test [3] (TF1 JAK2 V617F), 5000 to 100000 nM.

Turning to `COc1c(Nc2cc(NC(=O)C3CC3)nn3cc(C)nc23)ccc(C)c1-c1ccc(C(=O)N(C)Cc2cn(C)nc2C)nc1` [Compound 262], in test [1], the Kd lay in the range of 0.01 to 10 nM. Besides, the IC50 lay within 500 to 5000 nM in test [2] (setting [4]) and 5000 to 100000 nM in test [3] (setting [4]).

For the molecule `CNC(=O)c1nnc(NC(=O)C2CC2)cc1Nc1cccc(-c2cc(C3CN(Cc4ccccn4)C3)n(C)n2)c1OC` [Compound 203], the Kd in test [1] fell in the range of 50 to 500 nM. For the same molecule, the IC50 in test [2] (setting [4]) and in test [3] (setting [4]) was 5000 to 100000 nM throughout.

In test [1] (SPR, JAK2 JH2 domain), `CNC(=O)c1nnc(NC(=O)C2CC2)cc1Nc1cccc(-c2cnn(C3CN(C(C)c4ccccn4)C3)c2)c1OC` (racemic) [Compound 127] came in with a Kd of 0.01 to 10 nM. Also, the IC50 in test [2] (TF1 JAK2 V617F) and in test [3] (TF1 JAK2 V617F) was 500 to 5000 nM throughout.

In test [1], `CNC(=O)c1nnc(NC(=O)C2CC2)cc1Nc1nccc(-c2cnn(C3CN(Cc4ccccn4)C3)c2)c1OC` [Compound 218] returned a Kd of 0.01 to 10 nM. Besides, the results for the IC50 in test [2] (setting [4]) and in test [3] (setting [4]) were 50 to 500 nM and 500 to 5000 nM, respectively.

Take `CNC(=O)c1nnc(NC(=O)C2CC2)cc1Nc1cccc(-c2ccc(C(=O)N(C)Cc3ccn(C)n3)c(F)c2)c1OC` [Compound 132]: the Kd in test [1] (SPR, JAK2 JH2 domain) is 0.01 to 10 nM. Further, the IC50 in test [2] (TF1 JAK2 V617F) and in test [3] (TF1 JAK2 V617F) was 500 to 5000 nM in each case.

For `[2H]C([2H])([2H])NC(=O)c1nnc(NC(=O)C2CC2)cc1Nc1cccc(-c2cnc(C(=O)N(Cc3ccn(C)n3)C([2H])([2H])[2H])nc2)c1OC` [Compound 63], the Kd in test [1] (SPR, JAK2 JH2 domain) was 0.01 to 10 nM. Besides, the IC50 in test [2] (TF1 JAK2 V617F) and in test [3] (TF1 JAK2 V617F) was 500 to 5000 nM throughout.

In turn, `CNC(=O)c1nnc(NC(=O)C2CC2)cc1Nc1cccc(-c2cnn(C3CN(Cc4ncccc4C(F)(F)F)C3)c2)c1OC` [Compound 302] returned a Kd in test [1] of 0.01 to 10 nM. Also, the IC50 in test [2] (setting [4]) and in test [3] (setting [4]) was 500 to 5000 nM each time.

`CNC(=O)c1nnc(NC(=O)C2CC2)cc1Nc1cccc(-c2cnn(C3CN(Cc4cc(OC)ccn4)C3)c2)c1OC` [Compound 88] had a dissociation constant Kd in test [1] (SPR, JAK2 JH2 domain) of 0.01 to 10 nM. For the same molecule, the IC50 in test [2] (TF1 JAK2 V617F) and in test [3] (TF1 JAK2 V617F) was 500 to 5000 nM each time.

In test [1] (SPR, JAK2 JH2 domain), `CNC(=O)c1nnc(NC(=O)C2CC2)cc1Nc1cccc(-c2cnn(C3CN(Cc4csc(C)n4)C3)c2)c1OC` [Compound 126] had a Kd of 0.01 to 10 nM. Also, the IC50 in test [2] (TF1 JAK2 V617F) and in test [3] (TF1 JAK2 V617F) was 50 to 500 nM each time.

`CNC(=O)c1nnc(NC(=O)C2CC2)cc1Nc1cccc(-c2ccc(C(=O)N(C)Cc3ccccn3)nc2)c1OC` [Compound 19] had a Kd in test [1] (SPR, JAK2 JH2 domain) of 0.01 to 10 nM. Moreover, the IC50 in test [2] (TF1 JAK2 V617F) and in test [3] (TF1 JAK2 V617F) was 500 to 5000 nM in each case.

`CNC(=O)c1nnc(NC(=O)C2CC2)cc1Nc1cccc(-c2cnc(C3CN(Cc4ccccn4)C3)nc2)c1OC` [Compound 325] displayed a Kd in test [1] of 0.01 to 10 nM. Moreover, the IC50 in test [2] (setting [4]) and in test [3] (setting [4]) was 5000 to 100000 nM throughout.

Turning to `CNC(=O)c1nnc(NC(=O)C2CC2)cc1Nc1cccc(-c2cnn(C3CN(Cc4ncccc4C(=O)N(C)C)C3)c2)c1OC` [Compound 299], the Kd in test [1] lay within 0.01 to 10 nM. The IC50 in test [2] (setting [4]) and in test [3] (setting [4]) was 500 to 5000 nM throughout.

In turn, `CNC(=O)c1nnc(NC(=O)C2CC2)cc1Nc1cccc(-c2cnn(C3CN(Cc4ncccc4F)C3)c2)c1OC` [Compound 69] came in with a Kd in test [1] (SPR, JAK2 JH2 domain) of 0.01 to 10 nM. Further, the IC50 in test [2] (TF1 JAK2 V617F) and in test [3] (TF1 JAK2 V617F) was 500 to 5000 nM throughout.

Regarding `CNC(=O)c1nnc(NC(=O)C2CC2)cc1Nc1cccc(-c2ccc(C(=O)N(C)Cc3csc(C)n3)nc2)c1OC` [Compound 174], the Kd in test [1] (SPR, JAK2 JH2 domain) lay in the range of 0.01 to 10 nM. Further, the concentration for half-maximal inhibition (IC50) in test [2] (TF1 JAK2 V617F) and in test [3] (TF1 JAK2 V617F) was 50 to 500 nM in each case.

For `CNC(=O)c1nnc(NC(=O)C2CC2)cc1Nc1cccc(-c2cnn(C3CN(Cc4cccc(F)c4F)C3)c2)c1OC` [Compound 129], in test [1] (SPR, JAK2 JH2 domain), the Kd was 10 to 50 nM. Besides, the IC50 in test [2] (TF1 JAK2 V617F) and in test [3] (TF1 JAK2 V617F) was 500 to 5000 nM in each case.
